Among the data in patent US5087631A, “Oxathi(SIV)azol-5-one compounds” (Glaxo Inc., priority 1990, dated 1992) are IC50 values, retold here.

In general, IC50 refers to the concentration that gives 50% inhibition.

This experiment relates to thoracic aortas. As to the kind of experiment: Aorta Vasodilation Assay (relaxation of phenylephrine-contracted, endothelium-removed rat thoracic aorta rings). Particulars: 20% O2, without methylene blue, endothelium-removed rings contracted with phenylephrine (1×10^-7 M), SOD 100 U/mL, cumulative addition, read-out: IC50 (relaxation induced by test compound, vasodilation assay). On the set-up: species or system male Sprague-Dawley rats. The method, then:
The thoracic aortas removed from euthanized male Sprague-Dawley rats (200-300 g) are cleaned of adherent connective tissue and cut into rings 3 to 5 mm in length. Endothelium is removed by rolling the rings on moist filter paper. […] Tissues are mounted to isometric force displacement transducers and responses are recorded on a polygraph.
All rings are gradually stretched (over a 120 min. period) to a basal resting tension of 2 g, which is maintained throughout the assay. During the basal tension adjustment period, the rings are exposed to KCl (40 mM) two to three times to verify tissue contractility. During this period, the effectiveness of endothelium removal is confirmed by the absence of the characteristic relaxation seen with acetylcholine (1×10^-6 M) in endothelium-intact (but not endothelium-removed) rings contracted with phenylephrine (1×10^-7 M).
Phenylephrine (1×10^-7 M) is then added and the rings are allowed to obtain a stable contractile response after which time, SOD (100 U/mL) is added to the tissues. The test compound is then added in a cumulative fashion. After the stabilization of the response to the last concentration of the test compound, sodium nitroprusside (1×10^-4 M) is added to induce complete relaxation.
In the case of `COc1ccc(-c2[s+]noc2[O-])cc1` [4-methoxyphenyl, 4-(4-methoxyphenyl)-5H-1,3,2-oxathi(SIV)azol-5-one], the IC50 amounted to 1.3 µM.
For `O=[N+]([O-])c1ccc(-c2[s+]noc2[O-])cc1` [4-nitrophenyl, 4-(4-nitrophenyl)-5H-1,3,2-oxathi(SIV)azol-5-one], the IC50 came out at 16 µM.
Take `Cc1[s+]noc1[O-]` [methyl, 4-Methyl-5H-1,3,2-oxathi(SIV)azol-5-one]: the IC50 was 20 µM.
For the compound `[O-]c1on[s+]c1-c1ccccc1` [phenyl, 4-phenyl-5H-1,3,2-oxathi(SIV)azol-5-one], the IC50 was 2.3 µM.
